Values quoted from earlier work in patent publication US20050176827A1, “Compositions and methods for glycogen synthesis” (priority 2002, published 2005).

System: pancreatic beta cell
Settings: micromolar concentrations; direct effect on pancreatic beta cell, glucose dependent

For CC(O)C(C)C(N)C(=O)O (stereo not shown) [4-hydroxyisoleucine], the “effect on glucose-induced insulin secretion” value is listed as “stimulate glucose-induced insulin secretion”.
